Legend:
[1] = relative permittivity at zero frequency (dimensionless); conditions: 101 kPa, Liquid, impedance/gain phase analyzer
[2] = Crystal; Derived from relative static permittivity measurements of the liquid and solid states
[3] = relative permittivity at zero frequency (dimensionless); xn = mol fraction of the nth substance listed; conditions: 101 kPa, Liquid, impedance/gain phase analyzer, x2 = 0

C[S+](C)[O-] [dimethyl sulfoxide]
[1]
Conditions | relative permittivity at zero frequency
291.15 K | 47.15
293.15 K | 47.09
295.15 K | 46.84
297.15 K | 46.64
299.15 K | 46.39
301.15 K | 46.18
303.15 K | 45.94
305.15 K | 45.63
307.15 K | 45.39
309.15 K | 45.14
311.15 K | 44.88
313.15 K | 44.64
315.15 K | 44.34
317.15 K | 44.11
319.15 K | 43.87
321.15 K | 43.58
323.15 K | 43.31
325.15 K | 43.07
327.15 K | 42.78
329.15 K | 42.56
331.15 K | 42.27
333.15 K | 42

Conditions | Normal melting temperature [°C]
[2] | 18.1

O [water]
[1]
Conditions | relative permittivity at zero frequency
273.15 K | 87
275.15 K | 86.36
277.15 K | 85.67
279.15 K | 84.84
281.15 K | 84.25
283.15 K | 83.37
285.15 K | 82.73
287.15 K | 82.02
289.15 K | 81.33
291.15 K | 80.65
293.15 K | 79.98
295.15 K | 79.32
297.15 K | 78.42
299.15 K | 77.85
301.15 K | 77.29
303.15 K | 76.61
305.15 K | 75.95
307.15 K | 75.3
309.15 K | 74.65
311.15 K | 73.97
313.15 K | 73.29
315.15 K | 72.68
317.15 K | 72.09
319.15 K | 71.44
321.15 K | 70.76
323.15 K | 70.14
325.15 K | 69.54
327.15 K | 68.94
329.15 K | 68.3
331.15 K | 67.68
333.15 K | 67.07

Conditions | Normal melting temperature [°C]
[2] | 0.1

O [water] + C[S+](C)[O-]
[3]
Conditions | relative permittivity at zero frequency
273.15 K | 87
275.15 K | 86.36
277.15 K | 85.67
279.15 K | 84.84
281.15 K | 84.25
283.15 K | 83.37
285.15 K | 82.73
287.15 K | 82.02
289.15 K | 81.33
291.15 K | 80.65
293.15 K | 79.98
295.15 K | 79.32
297.15 K | 78.42
299.15 K | 77.85
301.15 K | 77.29
303.15 K | 76.61
305.15 K | 75.95
307.15 K | 75.3
309.15 K | 74.65
311.15 K | 73.97
313.15 K | 73.29
315.15 K | 72.68
317.15 K | 72.09
319.15 K | 71.44
321.15 K | 70.76
323.15 K | 70.14
325.15 K | 69.54
327.15 K | 68.94
329.15 K | 68.3
331.15 K | 67.68
333.15 K | 67.07

Source: the NIST ThermoML archive (doi:10.1021/je400149j)
